Assays:
[1] = from U.S. Pat. No. 4,123,530; cited from earlier work
mouse = assay: acute toxicity per os, mouse; assay type: in vivo; conditions: fiduciary limits (6646.4-5862.2)
Excerpt: (§1) The acute toxicity of the complex salt of dihydroxy-aluminum-gluconate of N-cyclohexyl-piperazino acetamide is checked by the usual pharmacotoxicologic testing on the rat and mouse per os, the results of which are given in the following table.

gastric hyperacidity = assay: buffering activity (neutralizing action for gastric hyperacidity); assay type: in vivo; conditions: rat, os
[2] = tested on: Duodenal from cystamine experimental ulcer; assay: antiulcer activity, duodenal ulcer from cystamine; assay type: in vivo; conditions: rat, i.d.
Excerpt: (§2) The antiulcer activity has been tested on the rat for different types of experimental ulcer. The obtained therefrom is in Table 2.

rat = assay: acute toxicity per os, rat; assay type: in vivo
Excerpt: as §1

Fast experimental ulcer = assay: antiulcer activity, fast ulcer; assay type: in vivo; conditions: rat, os
Excerpt: as §2

[3] = tested on: From indomethacin experimental ulcer; assay: antiulcer activity, ulcer from indomethacin; assay type: in vivo; conditions: rat, os
Excerpt: as §2

[4] = tested on: Reserpine experimental ulcer; assay: antiulcer activity, reserpine ulcer; assay type: in vivo; conditions: rat, os
Excerpt: as §2

[5] = tested on: Phenylbutazone + hystamine experimental ulcer; assay: antiulcer activity, phenylbutazone + hystamine ulcer; assay type: in vivo; conditions: rat, os
Excerpt: as §2

antisecretive activity = assay type: in vivo; conditions: rat, os
[6] = buffering effect, HCl titration in vitro; assay type: physicochemical; conditions: 4.6 g sample in 400 ml 0.015 N HCl, 37° C., 0.1 N HCl at 1 ml/minute; minimum requirement
Experimental: Buffering effect: to 4.6 g of the sample, in a 1000 ml beaker, 400 ml of 0.015 N HCl are added, while keeping the temperature at 37° C. (thermostat). The pH is measured after 30 minutes, while controlling that it be maintained within 4.8.div.5.0. Then, by means of a burette, 0.1 N HCl is introduced at a rate of 1 ml/minute, to achieve a pH of 3.0. 165 ml of 0.1N HCl must be consumed at the very least.

Shay experimental ulcer = assay: antiulcer activity, Shay ulcer; assay type: in vivo; conditions: rat, i.d.
Excerpt: as §2

[7] = tested on: Immobilization experimental ulcer; assay: antiulcer activity, immobilization ulcer; assay type: in vivo; conditions: rat, os
Excerpt: as §2

Molecule | antisecretive and antiulcer activity [1] | LD50 (mouse) | ED50 (buffering activity) (gastric hyperacidity) | ED50 (antiulcer) [2] | toxicity (rat; rat and mouse per os, overall statement) | LD50 (rat; rat, os, fiduciary limits (8447.4-5264.6)) | ED50 (antiulcer) (Fast experimental ulcer) | ED50 (antiulcer) [3] | ED50 (antiulcer) [4] | ED50 (antiulcer) [5] | ED50 (antisecretive activity) (antisecretive activity) | 0.1N HCl consumed to achieve a pH of 3.0 [6] | ED50 (antiulcer) (Shay experimental ulcer) | ED50 (antiulcer) [7]
O=C(CN1CCNCC1)NC1CCCCC1 [N-cyclohexyl-1-piperaziniylacetamide] | considerable | – | – | – | – | – | – | – | – | – | – | – | – | –
Dihydroxy-aluminate-gluconate of N- cyclohexyl-1-piperazino-acetamide | – | 6241.9 mg/kg | 156 mg/kg | 270 mg/kg | very low | 6668.4 mg/kg | 350 mg/kg | 420 mg/kg | 480 mg/kg | 150 mg/kg | 330 mg/kg | ≥ 165 ml | 360 mg/kg | 420 mg/kg
CC1CCC(NC(=O)CN2CCNCC2)CC1 (stereo not drawn) [N-4-methyl-cyclohexyl-1-piperazinylacetamide] | considerable | – | – | – | – | – | – | – | – | – | – | – | – | –
